Where “and” joins values, the source holds several entries; their conditions need not be identical. Equal values may be shown once.
Tests used:
[1] = test system: dogs with intracoronary microembolization-induced chronic HF; assay: 3 months therapy with beta-blocker alone, beta-blocker combined with CCM, or no therapy in HF dogs: LV EDV, ESV, EF; format: in vivo, dog
Protocol: In a set of experiments, dogs with intracoronary microembolization-induced chronic HF (LV EF 30%-40%) were randomized to 3 months therapy with either BB (beta-blockers) alone (extended release metoprolol succinate, 100 mg once daily), extended release metoprolol succinate (100 mg, once daily) combined with CCM therapy, or to no therapy at all (Control). LV end-diastolic volume (EDV), end-systolic volume (ESV) and EF were measured before randomization (PRE) and after 3 months of therapy (POST). To determine “treatment effect”, the change A between PRE and POST therapy for each group was compared among the 3 study groups.

[2] = test system: normal cells; conditions: advertised; cited from earlier work
[3] = molecular target: protein kinase G; conditions: advertised; read-out: Inhibits protein kinase G IC50; cited from earlier work
[4] = test system: platelet aggregation; conditions: advertised; cited from earlier work
[5] = test system: human malignant glioma cell lines; conditions: advertised; cited from earlier work
[6] = test system: phospholamban threonin-17; assay: Phosphorylation of PLB at threonine-17 in failing LV tissue homogenate with/without protein kinase inhibitor and CCM signal (Western blot); format: biochemical, dog
Protocol: (§1) The tissue homogenate was prepared in the following manner. […] The homogenate was then filtered through 4 layers of cheese cloth. The resulting homogenate was stored in ice and its protein concentration was determined by the Lowry method.
(§2) The CCM signals were delivered to the homogenate as follows. The homogenate was diluted 2 fold in homogenate buffer and subsequently aliquotted 3 ml each in assay tubes. Assay tubes were divided into 2 sets (Set A and Set B), each subset consisting of […]. CCM signals were delivered for 10″, 30″, 1′, 5′, 30′, and 60′ in one of the sets, while the other set served as time control. The reaction was stopped by adding concentrated SDS. Protein assay on all the samples were performed by Lowry method.
(§3) Additional experiments of tissue homogenate were carried out in the presence and absence of protein kinese inhibitors. The homogenate was the same as above, from dogs with heart failure. […] CAS 62996-74-1.

[7] = test system: phospholamban serine-16; assay: Phosphorylation of PLB at serine-16 in failing LV tissue homogenate with/without protein kinase inhibitor and CCM signal (Western blot); format: biochemical, dog
Protocol: as §1, §2, §3

[8] = 10 sec, Control + PK Inhibitor (no CCM)
[9] = 20 sec, Control + PK Inhibitor (no CCM)
[10] = 30 sec, Control + PK Inhibitor (no CCM)
[11] = CCM signals delivered for 60 sec, PK Inhibitor + CCM

COCCc1ccc(OCC(O)CNC(C)C)cc1 (centres unmarked) [BB, metoprolol succinate]
Treatment effect (Δ PRE to POST) LV EF ([1]; BB 100 mg once daily combined with CCM therapy): 12±1%
LV EDV, effect of therapy ([1]; BB alone): prevented the increase
LV EF, effect of therapy ([1]; BB alone): significantly increased
LV ESV, effect of therapy ([1]; BB alone): significantly reduced
Treatment effect (Δ PRE to POST) LV EF ([1]; BB alone, 100 mg once daily): 6±1%
LV EDV, effect of therapy ([1]; BB combined with CCM): prevented the increase
LV EF, effect of therapy ([1]; BB combined with CCM): significantly increased
LV ESV, effect of therapy ([1]; BB combined with CCM): significantly reduced

CN[C@@H]1C[C@H]2O[C@@](C)([C@@H]1OC)n1c3ccccc3c3c4c(c5c6ccccc6n2c5c31)C(=O)NC4 [STAUROSPORIN]
cell cycle of normal cells (G1 checkpoint) [2]: Arrests normal cells at the G1 checkpoint
IC50 [3]: 8.5 nM
platelet aggregation induced by collagen or ADP [4]: inhibits
thrombin-induced platelet aggregation [4]: no effect
apoptosis in human malignant glioma cell lines [5]: Induces apoptosis
P-PLB threonin-17, single sample [6, 8]: 8.9 and 9.5
P-PLB threonin-17, Av [6, 9]: 9.0
P-PLB threonin-17, single sample [6, 10]: 8.2
P-PLB threonin-17, Av ([6]; 60 sec, Control + PK Inhibitor (no CCM)): 13.9
P-PLB threonin-17, single sample ([6]; CCM signals delivered for 10 sec, PK Inhibitor + CCM): 14.6 and 9.9 and 8.7
P-PLB threonin-17, single sample ([6]; CCM signals delivered for 20 sec, PK Inhibitor + CCM): 8.3 and 15.0
P-PLB threonin-17, Av [6, 11]: 15.0
threonin-17 PLB phosphorylation response to CCM in presence of kinese inhibitor ([6]; HF dog LV homogenate): reduced and delayed response
P-PLB serine-16, single sample [7, 8]: 8.0 and 9.0
P-PLB serine-16, single sample [7, 9]: 12.2 and 14.0
P-PLB serine-16, Av [7, 10]: 9.4
P-PLB serine-16, single sample [7, 10]: 6.8 and 9.7
P-PLB serine-16, single sample ([7]; CCM signals delivered for 30 sec, PK Inhibitor + CCM): 14.3 and 13.0
P-PLB serine-16, Av [7, 11]: 19.9
P-PLB serine-16, single sample [7, 11]: 22.7
serine-16 PLB phosphorylation response to CCM in presence of kinese inhibitor ([7]; HF dog LV homogenate): responded close to usual
